Experimental findings from article doi:10.1101/2025.08.21.671593v1, “Suppression and modulation mechanism underlying the flavonoid-induced inhibition of fibrillation of α-synuclein” (biorxiv, 2025) are described below.

In the test the target is T1, α-synuclein (α-Syn, αSyn), monomeric (Homo sapiens, UniProt P37840).
T1 construct: gene SNCA; purified, unfolded monomer
The test is described as follows: intrinsic tyrosine fluorescence quenching, modified Stern-Volmer plot. Conditions: 37 °C; protein 0.3 mg/mL, Cyanidin 2-30 μM; about 1:1; double-log; printed '8.4×10[5]'; paper calls it weak binding (mM range), which conflicts with this value.

On to `Oc1cc(O)c2cc(O)c(-c3ccc(O)c(O)c3)[o+]c2c1` [Cyanidin], for which the Ka is 840000 M⁻¹.
